Entries after “also recorded” stand apart in the source; their conditions may differ.
T1: C3a Receptor (Homo sapiens, UniProt Q16581)
T1 sequence (Q16581 1-482 F151C): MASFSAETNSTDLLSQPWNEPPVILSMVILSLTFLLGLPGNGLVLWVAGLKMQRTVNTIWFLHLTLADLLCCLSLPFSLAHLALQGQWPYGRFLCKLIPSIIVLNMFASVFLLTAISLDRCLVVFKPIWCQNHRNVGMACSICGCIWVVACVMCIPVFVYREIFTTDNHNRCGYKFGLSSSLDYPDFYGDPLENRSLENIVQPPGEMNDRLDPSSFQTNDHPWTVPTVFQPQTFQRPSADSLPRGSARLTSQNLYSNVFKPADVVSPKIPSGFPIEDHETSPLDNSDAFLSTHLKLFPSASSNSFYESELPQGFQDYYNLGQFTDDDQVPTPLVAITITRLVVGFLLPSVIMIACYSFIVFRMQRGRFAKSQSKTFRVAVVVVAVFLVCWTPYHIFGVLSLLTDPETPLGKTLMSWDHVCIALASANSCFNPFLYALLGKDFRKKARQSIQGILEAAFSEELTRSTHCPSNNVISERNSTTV


Columns and labels:
C5a-R = test: Electrophysiological response (Ca2+ mediated chloride currents, two electrode voltage clamp) of Xenopus oocytes injected with C5a-R cRNA; type: cell-based, human; settings: oocytes co-injected with C5a-R cRNA (10 ng) and U937 RNA (25 ng), ligands 10 nM
Procedure: (A) Electrophysiological response of Xenopus oocytes injected with cRNA for C3a Receptor (10 ng), total U937 RNA (25 ng), or a mixture of C3a Receptor (10 ng) and U937 RNA (25 ng) to 10 nM rC5a, 10 nM C3a analogue peptide, 10 nM platelet activating factor (PAF), 10 nM fMetLeuPhe. Inset, represents typical response of oocytes co-injected with C3a Receptor cRNA+U937 RNA to 10 nM C3a. (B) Electrophysiological response of oocytes injected with C5a-R cRNA (10 ng), U937 RNA (25 ng) or a mixture of C5a-R and U937 RNA, to 10 nM rC5a or 10 nM C3a analogue peptide. […] Calcium mobilization by Fura 2 loaded cells expressing C5a receptor (FIGS. 4A & 4C) or C3a Receptor (FIGS. 4B & 4D) in response to rC5a (10 nM, FIG. 4A or 100 nM, FIG. 4B) or C3a analogue peptide (1 uM, FIGS. 4C & 4D).
Commercially prepared (Clontech, Palo Alto, Calif.) multiple tissue blots containing approximately 2 μg poly-A mRNA per lane were sequentially hybridized with random primer ^32 P-labeled cDNAs spanning the coding regions of C5a-R and C3a Receptor. C5a-R was cloned via PCR from differentiated U937 RNA. Final washing step was carried out twice in 0.5× SSC, 1% SDS at 65° C. for 20 min.
Capped cRNA transcripts were generated from linearized C3a Receptor and C5a-R plasmid DNA as previously described (Kumar, C. S., et al (1989) J. Biol. Chem. 264, 17939-17946) and suspended in sterile water at a concentration of 0.2 μg/μl. […] Results represent average response determined in three separate experiments.
The chemotactic receptors for C5a and the fMLP-R have previously been functionally expressed in Xenopus laevis oocytes (Kroll, B., et al (1991) FEBS Lett. 291, 208-210; Murphy, P. M. & McDermott, D. (1991) J Biol. Chem. 266, 12560-12567; Murphy, P. M., Gallin, E. K., and Tiffany, H. L. (1990) J Immunol. 145, 2227-2234; Schultz, P., et al (1992) Cellular Signalling 4, 153-161) and, unlike all other GPCRs tested in this system, injection of cRNA for the cloned chemotactic receptors alone is insufficient to stimulate signal transduction in response to ligand binding (Kroll, B., et al (1991) FEBS Lett. 291, 208-210; Murphy, P. M. & McDermott, D. (1991) J Biol. Chem. 266, 12560-12567). Functional expression of both of these chemotactic receptors, as monitored by induction of Ca^2+ mediated chloride currents, requires the co-injection of a complimentary human factor which can be supplied by total RNA from myeloid or liver cells (Kroll, B., et al (1991) FEBS Lett. 291, 208-210; Murphy, P. M. & McDermott, D. (1991) J Biol. Chem. 266, 12560-12567). […]

guinea pig ileal tissue = settings: C3a and C4a; cited from earlier work
C3a Receptor = molecular target: T1, C3a Receptor; test: C3a binding to HEK 293 cells stably expressing C3a Receptor mRNA; design: cDNA encoding a complete orphan GPCR of 482 amino acids; expressed in transfected cells; settings: data not shown
Description: C3a was radioiodinated and used in whole cell binding assays to further characterize C3a Receptor. […] Curiously, HEK 293 cells stably expressing C3a Receptor mRNA by Northern Blot, neither bound nor responded to C3a (data not shown).

| Molecule | electrophysiological response of oocytes expressing C5a-R (C5a-R) | electrophysiological response of oocytes expressing C5a-R (C5a-R; listed as native ligand) | cross desensitization of guinea pig ileal tissue (guinea pig ileal tissue) | binding of C3a to HEK 293 cells expressing C3a Receptor mRNA (C3a Receptor) | electrophysiological response of oocytes expressing C5a-R (C5a-R; listed as C5a) |
| --- | --- | --- | --- | --- | --- |
| C3a: C3a was purchased from Advanced Research Technologies, San Diego; anaphylatoxin; radioiodinated for binding | smaller response; also recorded: respond | elicited similar responses | cross desensitize | neither bound |  |
| rC5a: Human rC5a was expressed in E. coli and purified to homogeneity (protein, UniProt P01031 678-751, looked up, C5a anaphylatoxin recombinant, E. coli, Human rC5a was expressed in E. coli and purified to homogeneity) C5a anaphylatoxin: TLQKKIEEIAAKYKHSVVKKCCYDGACVNNDETCEQRAARISLGPRCIKAFTECCVVASQLRANISHKDMQLGR | induced rapid activation of chloride currents |  |  |  | respond |
